According to patent publication US11491165B2 (Kinoxis Therapeutics Pty Ltd, priority 2016, dated 2022):

Columns and labels:
[1] = target: T1, oxytocin receptor (OXTR), hOTR (Homo sapiens, UniProt P30559); test: Competition radioligand binding, [3H]-oxytocin, OTR-expressing HEK293 membranes; settings: [3H]-oxytocin 10 nM, 90 min 4 °C
T1 construct: expressed in transfected cells
T1 sequence (P30559 1-389): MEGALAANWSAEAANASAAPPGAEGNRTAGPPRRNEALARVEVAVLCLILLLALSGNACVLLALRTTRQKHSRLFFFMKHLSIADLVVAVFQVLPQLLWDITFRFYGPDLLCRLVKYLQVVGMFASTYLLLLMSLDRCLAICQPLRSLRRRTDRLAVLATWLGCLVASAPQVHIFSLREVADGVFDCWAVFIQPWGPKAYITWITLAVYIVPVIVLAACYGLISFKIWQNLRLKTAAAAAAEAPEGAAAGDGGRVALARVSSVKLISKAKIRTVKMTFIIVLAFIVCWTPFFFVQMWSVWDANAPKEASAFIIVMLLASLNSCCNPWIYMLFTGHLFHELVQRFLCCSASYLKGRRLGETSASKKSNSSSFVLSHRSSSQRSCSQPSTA
Experimental: (§1) Human embryonic kidney cells (HEK-293) transfected to stably express untagged hOTR and V1aR using the Flp-In™ T-REx™ system (Life Technologies, Carlsbad, Calif. USA) were established as reported in Jorgensen et al., 2016 (the entire disclosure of which is hereby incorporated by reference). Cells were subsequently maintained in 10% DMEM containing hygromycin (80 μg/ml), penicillin (100 U/ml), streptomycin (0.1 mg/ml) and blasticidine S hydrochloride (15 μg/ml).
(§2) To induce receptor expression, cells were incubated with tetracycline (2 μg/mL) for 48 h. PBS with 5 mM EDTA (pH 7.4) was used to detach OTR and V1aR-expressing HEK293 cells from culture flasks. Harvested cells were centrifuged at 1200 g for 5 min and were resuspended in homogenization buffer (50 mM HEPES, 5 mM EDTA, 5 mM MgCl2; pH 7.4) prior to homogenization using an Ultra-Turrax homogeniser (IKA, Wilmington, N.C., USA). Homogenates were centrifuged three times for 30 min at 48.000 g, 4° C. for 30 min and membrane pellets resuspended in 50 mM Tris HCl, 5 mM MgCl2 (pH 7.4). A bicinchoninic acid assay was used according to the manufacturer's protocol (Bio-Rad, Hercules. Calif., USA) to measure final protein concentration. Membranes were stored at −80° C. until use in competition radioligand binding studies.
(§3) Reactions were incubated for 90 min at 4° C. to reach equilibrium, and terminated by rapid filtration over glass fibre filters (Whatman GF/A […]; Millipore, Darmstadt, Germany), and washing with ice-cold reaction buffer. Filters were dried, then incubated with Microscint 0 (Perkin Elmer) for 30 min before radioactivity was detected with a Microbeta2 2450 microplate-reader (Perkin Elmer). […] Specific binding in the presence of compounds was expressed as a percentage of specific binding in the presence of vehicle control. A sum-of-squares F-test was used to compare the goodness of fit of one-site, two-site and sigmoidal with variable hill slope binding models, and to calculate Ki's using Graphpad Prism (Graphpad Software, La Jolla, Calif., USA).

[2] = target: T2, vasopressin 1a receptor (V1aR) (Homo sapiens, UniProt P37288); test: Competition radioligand binding, [3H]-vasopressin, V1aR-expressing HEK293 membranes; settings: [3H]-vasopressin 2 nM, 90 min 4 °C
T2 construct: expressed in transfected cells
T2 sequence (P37288 whole entry): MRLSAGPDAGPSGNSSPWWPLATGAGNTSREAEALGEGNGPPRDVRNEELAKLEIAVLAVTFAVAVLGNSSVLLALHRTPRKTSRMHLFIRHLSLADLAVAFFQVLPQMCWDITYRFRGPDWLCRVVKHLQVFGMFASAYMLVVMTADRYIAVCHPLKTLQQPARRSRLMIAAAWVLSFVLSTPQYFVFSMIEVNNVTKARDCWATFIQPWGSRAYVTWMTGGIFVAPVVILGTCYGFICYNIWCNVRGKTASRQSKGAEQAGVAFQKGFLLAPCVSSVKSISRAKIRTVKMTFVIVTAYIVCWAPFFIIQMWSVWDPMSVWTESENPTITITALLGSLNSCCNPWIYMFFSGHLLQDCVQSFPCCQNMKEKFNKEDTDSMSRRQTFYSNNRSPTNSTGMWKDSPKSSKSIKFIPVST
Experimental: as §1, §2, §3

[3] = target: T1, oxytocin receptor (OXTR), hOTR; test: IP1 accumulation assay, OTR-expressing HEK-293 cells (agonist and antagonist assessment); assay type: cell-based; settings: for EC50 / EC50 (OXTR agonist potency, mean ± s.d.): agonist assessment; for EC50: IP1, 1 h; for IC50: antagonist assessment vs OT 30 nM (~EC70); for IC50 / EC50 (OXTR agonist potency, mean ± s.d.): IP1; for OV function: ratio of OXTR functional potency to V1aR functional potency, 'OT only' = function at OXTR only; for Emax: HEK293, read-out: OXTR Emax (% OXT)
Experimental: as §1
(§4) OTR or V1aR-expressing HEK-293 cells were seeded onto poly-L-lysine (100 μg/ml)-coated 384-well plates at a density of 8.75×10^3 cells per well. Cells were incubated in tetracycline (2 μg/mL) for 48 h to induce receptor expression. Intracellular IP1 levels induced by activation of the Gq protein coupled to the OTR and V1aR was indexed using the HTRF IP-One kit (CisBio International, Bedford, Mass., USA), according to manufacturer's protocol. For agonist assessment, cells were incubated with logarithmically-spaced concentrations of compounds (1 nM-100 μM) for 1 h prior to the addition of Ab-Cryptate and IP1-d2 for 1 h. The contents of each well were transferred to a white-walled proxy plate (Perkin Elmer) and fluorescence read using a Pherastar Microplate reader (BMG Labtech, Cary, N.C., USA). For antagonist assessment, cells were incubated an ˜EC70 concentration of OT (30 nM) or AVP (25 nM) mixed with compounds (1 nM-100 μM) or vehicle control for 1 h. IP1 levels in the presence of compounds and OT or AVP were expressed as a percentage of levels seen with OT or AVP in the presence of vehicle control. Concentration response curves for OT and AVP were determined after 5 min incubation in drug or vehicle, and the data fitted using GraphPad PRISM to a 4-parameter logistic equation of the form y=Min+(Max−Min)/(1+10^((logEC50−X)*n)) where X is drug concentration and n is the H-ill slope. Data represent the mean±s.d. of at least 3 independent experiments, each in duplicate.

[4] = target: T2, vasopressin 1a receptor (V1aR); test: IP1 accumulation assay, V1aR-expressing HEK-293 cells (agonist and antagonist assessment); assay type: cell-based; settings: for EC50: agonist assessment, IP1, 1 h; for IC50: antagonist assessment vs AVP 25 nM (~EC70), IP1
Experimental: Cells were subsequently maintained in 10% DMEM containing hygromycin (80 μg/ml), penicillin (100 U/ml), streptomycin (0.1 mg/ml) and blasticidine S hydrochloride (15 μg/ml).
as §4, with “Cells” for “OTR or V1aR-expressing HEK-293 cells were seeded onto poly-L-lysine (100 μg/ml)-coated 384-well plates at a density of 8.75×10^3 cells per well. Cells”, “For antagonist assessment, cells were incubated an ˜EC70 concentration of OT (30 nM) or AVP (25 nM) mixed with compounds (1 nM-100 μM) or vehicle control for 1 h.” left out

SMILES	Ki [1] [nM]	Ki [2] [nM]	EC50 [3] [nM]	IC50 [3] [nM]	OV function [3]	EC50 [4] [nM]	IC50 [4] [nM]	melting point	Emax [3] [%]	EC50 (OXTR agonist potency, mean ± s.d.) [3] [nM]
Cc1ccc2c(c1)N(C(=O)c1ccccc1)Cc1cnn(C)c1N2 [WJ07117Me, (1,7-Dimethyl-4,10-dihydrobenzo[b]pyrazolo[3,4-e][1,4]diazepin-5 (1H)-yl)(phenyl)methanone]	4070 ± 1220	924	> 10000	> 10000	–	> 10000	> 10000	235 to 238 °C	–	–
Cn1ncc2c1Nc1ccccc1N(C(=O)c1ccc(OCc3ccccc3)cc1)C2 [BzE, (4-(benzyloxy)phenyl)(1-methyl-4,10-dihydrobenzo[b]pyrazolo[3,4-e][1,4]diazepin-5 (1H)-yl)methanone]	176 ± 41	35 ± 5	> 10000	179	0.11	> 10000	1590 ± 486	207 to 209 °C	–	–
Cn1ncc2c1Nc1ccccc1N(C(=O)C1CCCC1)C2 [CAS (KA), cyclopentyl(1-methyl-4,10-dihydrobenzo[b]pyrazolo[3,4-e][1,4]diazepin-5 (1H)-yl)methanone]	> 10000	553 ± 67	3390 ± 448	–	<0.33	> 10000	> 10000	> 300 °C	10	–
Cn1ncc2c1Nc1ccccc1N(C(=O)C1CC1)C2 [CA3 (KA), cyclopropyl(1-methyl-4,10-dihydrobenzo[b]pyrazolo[3,4-e][1,4]diazepin-5 (1H)-yl)methanone]	> 10000	3370 ± 740	> 10000	> 10000	–	> 10000	> 10000	207 to 209 °C	–	–

Other lines, results leading:

Ki [1] [nM]	Ki [2] [nM]	EC50 [3] [nM]	IC50 [3] [nM]	OV function [3]	EC50 [4] [nM]	IC50 [4] [nM]	melting point	Emax [3] [%]	EC50 (OXTR agonist potency, mean ± s.d.) [3] [nM]	SMILES
316 ± 79.2	12.9 ± 1.5	> 10000	1770	18.63	> 10000	94.8 ± 7.7	279 to 281 °C (dec.)	–	–	COc1cc(OC)cc(C(=O)N2Cc3cnn(C)c3Nc3ccccc32)c1 [WJ0629, (3,5-Dimethoxyphenyl)(1-methyl-4,10-dihydrobenzo[b]pyrazolo[3,4-e][1,4]diazepin-5 (1H)-yl)methanone]
> 10000	> 10000	> 10000	> 10000	–	> 10000	> 10000	203 to 205 °C	–	–	Cn1ncc2c1Nc1ccccc1N(S(=O)(=O)c1ccc(C(F)(F)F)cc1)C2 [WJ0639, 1-Methyl-5-((4-(trifluoromethyl)phenyl)sulfonyl)-1,4,5,10-tetrahydrobenzo[b]pyrazolo[3,4-e][1,4]diazepine]
> 10000	751 ± 197	> 10000	> 10000	–	> 10000	> 10000	267 to 269 °C (dec.)	–	–	Cn1ncc2c1Nc1ccccc1N(C(=O)c1ccncc1)C2 [WJ0757, (1-Methyl-4,10-dihydrobenzo[b]pyrazolo[3,4-e][1,4]diazepin-5 (1H)-yl)(pyridin-4-yl)methanone]
> 10000	> 10000	> 10000	> 10000	–	> 10000	> 10000	184 to 186 °C	–	–	Cc1ccc(S(=O)(=O)N2Cc3cnn(C)c3Nc3ccccc32)cc1 [WJ0641, 1-Methyl-5-tosyl-1,4,5,10-tetrahydrobenzo[b]pyrazolo[3,4-e][1,4]diazepine]
> 10000	81.6 ± 12.6	847 ± 244	–	–	> 10000	> 10000	> 300 °C	11.9	297.7 ± 71.3	Cn1ncc2c1Nc1ccccc1N(C(=O)c1ccccc1)C2 [WJ0685, (1-Methyl-4,10-dihydrobenzo[b]pyrazolo[3,4-e][1,4]diazepin-5 (1H)-yl)(phenyl)methanone]
755 ± 164	47.8 ± 9.4	521 ± 35.2	–	0.24	> 10000	2210 ± 406	290 to 292 °C (dec.)	10.9	272.7 ± 69.4	Cn1ncc2c1Nc1ccccc1N(C(=O)c1cc(F)cc(F)c1)C2 [WJ0681, (3,5-Difluorophenyl)(1-methyl-4,10-dihydrobenzo[b]pyrazolo[3,4-e][1,4]diazepin-5 (1H)-yl)methanone]
103 ± 31	7.8 ± 0.9	96.2 ± 22.9	–	0.085	> 10000	1140 ± 165	235 to 237 °C	11.3	283.7 ± 22.4	Cc1ccc(C(=O)N2Cc3cnn(C)c3Nc3ccccc32)cc1F [WJ0683, (3-Fluoro-4-methylphenyl)(1-methyl-4,10-dihydrobenzo[b]pyrazolo[3,4-e][1,4]diazepin-5 (1H)-yl)methanone]
149 ± 43.4	12.4 ± 2.4	85.3 ± 26.5	–	0.12	> 10000	710 ± 267	265 °C (dec.)	9.54	238.8 ± 38.7	Cc1ccc(C(=O)N2Cc3cnn(C)c3Nc3ccccc32)cc1 [WJ0653, (1-Methyl-4,10-dihydrobenzo[b]pyrazolo[3,4-e][1,4]diazepin-5 (1H)-yl)(p-tolyl)methanone]
